The target of this assay is FPR2 (Homo sapiens (Human), UniProt P25090). Description: FLIPR Ca+2 response, HEK-Gα16 cells stably expressing the human FPR2 receptor (Table 4). The class given is cell-based. As to conditions: for FPR2 (efficacy): efficacy in parentheses. How it is done: FLIPR: HEK-Gα16 cells stably expressing the human FPR2 receptor was utilized. Cells were plated into 384-well poly-D-lysine coated plates at a density of 18,000 cells per well one day prior to use. The growth media was DMEM medium supplemented with 10% fetal bovine serum (FBS), 1% antibiotic-antimycotic, 50 μg/ml hygromycin, and 400 μg/ml geneticin. On the day of the experiment, the cells were washed twice with Hank's Balanced Salt Solution supplemented with 20 mM HEPES (HBSS/hepes buffer). The cells were then dye loaded with 2 μM Fluo-4 diluted in the HBSS/Hepes buffer and incubated at 37° C. for 40 minutes. Extracellular dye was removed by washing the cell plates four times prior to placing the plates in the FLIPR (Fluorometric Imaging Plate Reader, Molecular Devices). Ligands were diluted in HBSS/Hepes buffer and prepared in 384-well microplates. Data for Ca^+2 responses were obtained in relative fluorescence units.

Data on 30 compounds can be found in patent US10208071B2, “Use of agonists of formyl peptide receptor 2 for treating ocular inflammatory diseases” (Allergan, Inc., priority 2013, dated 2019).

Chain of FPR2 (P25090 whole entry): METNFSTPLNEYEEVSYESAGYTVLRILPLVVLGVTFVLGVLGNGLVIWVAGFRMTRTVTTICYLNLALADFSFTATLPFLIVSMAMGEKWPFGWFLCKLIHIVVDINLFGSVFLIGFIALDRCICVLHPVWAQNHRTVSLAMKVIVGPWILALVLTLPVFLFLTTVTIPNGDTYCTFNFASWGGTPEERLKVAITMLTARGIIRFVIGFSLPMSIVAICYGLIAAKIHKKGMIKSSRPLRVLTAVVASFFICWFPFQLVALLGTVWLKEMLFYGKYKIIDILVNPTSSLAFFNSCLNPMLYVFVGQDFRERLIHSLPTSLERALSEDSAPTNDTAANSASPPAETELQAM

For `CC1(C)C2CCC1C(C(=O)Nc1ccc(Br)cc1)C2C(=O)O` (stereo not shown) [Compound 21, 3-[(4-bromophenyl)carbamoyl]-7,7-dimethylbicyclo[2.2.1]heptane-2-carboxylic acid], the “FPR2 (efficacy)” value is listed as “nM (0.85)”.

Turning to `CC1(C)C2CCC1C(C(=O)Nc1ccc(I)cc1)C2C(=O)O` (stereo not shown) [Compound 22, 3-[(4-iodophenyl)carbamoyl]-7,7-dimethylbicyclo[2.2.1]heptane-2-carboxylic acid], the “FPR2 (efficacy)” value is reported as “nM (0.97)”.

For `CSc1ccc(NC(=O)Nc2ccc3c(c2)C(=O)N(CCc2c[nH]cn2)C(c2ccco2)C3)cc1` (stereo not shown) [Compound 23, 1-{3-(furan-2-yl)-2-[2-(1H-imidazol-4-yl)ethyl]-1-oxo-1,2,3,4-tetrahydroisoquinolin-7-yl}-3-[4-(methylsulfanyl)phenyl]urea], the “FPR2 (efficacy)” value is listed as “nM (0.83)”.

As for `C[S+]([O-])c1ccc(NC(=O)Nc2ccc3c(c2)C(=O)N(CCc2c[nH]cn2)C(c2ccc(F)cn2)C3)cc1` (stereo not shown) [Compound 24, 1-{3-(5-fluoropyridin-2-yl)-2-[2-(1H-imidazol-4-yl)ethyl]-1-oxo-1,2,3,4-tetrahydroisoquinolin-7-yl}-3-[4-(methylsulfinyl)phenyl]urea], the “FPR2 (efficacy)” value is “nM (0.93)”.

`CS(=O)(=O)c1ccc(NC(=O)Nc2ccc3c(c2)C(=O)N(CCc2c[nH]cn2)C(c2ccc(F)cn2)C3)cc1` (stereo not shown) [Compound 25, 1-{3-(5-fluoropyridin-2-yl)-2-[2-(1H-imidazol-4-yl)ethyl]-1-oxo-1,2,3,4-tetrahydroisoquinolin-7-yl}-3-[4-(methylsulfonyl)phenyl]urea]: the “FPR2 (efficacy)” value was “nM (1.0)”.

Turning to `NC(=O)C1C(C(=O)Nc2ccc(Br)cc2)C2C=CC1C21CC1` (stereo not shown) [Compound 26, N-(4-bromophenyl) spiro[bicyclo[2.2.1]heptane-7,1′-cyclopropane]-5-ene-2,3-dicarboxamide], the “FPR2 (efficacy)” value is “nM (0.91)”.

With `CSc1ccc(NC(=O)Nc2ccc3c(c2)C(=O)N(CCc2c[nH]cn2)C(c2ccc(Cl)o2)C3)cc1` (stereo not shown) [Compound 27, 1-{3-(5-chlorofuran-2-yl)-2-[2-(1H-imidazol-4-yl)ethyl]-1-oxo-1,2,3,4-tetrahydroisoquinolin-7-yl}-3-[4-(methylsulfanyl)phenyl]urea], the “FPR2 (efficacy)” value was “nM (0.81)”.

Consider `CSc1ccc(NC(=O)Nc2ccc3c(c2)C(=O)N(CCc2c[nH]cn2)C(c2ccc(Cl)nc2)C3)cc1` (stereo not shown) [Compound 28, 1-{3-(6-chloropyridin-3-yl)-2-[2-(1H-imidazol-4-yl)ethyl]-1-oxo-1,2,3,4-tetrahydroisoquinolin-7-yl}-3-[4-(methylsulfanyl)phenyl]urea], for which the “FPR2 (efficacy)” value is reported as “nM (0.89)”.

As a reminder, the EC50 is the concentration that produces a half-maximal response. Higher therefore signals a less potent agent. On to `NC(=O)C1C(C(=O)Nc2ccc(Br)cc2)C2CCC1C21CC1` (stereo not shown) [Compound 30, N-(4-bromophenyl) spiro[bicyclo[2.2.1]heptane-7,1′-cyclopropane]-2,3-dicarboxamide], for which a half-maximal response (EC50) required 2.5 nM and the “FPR2 (efficacy)” value is “nM (0.96)”.

In the case of `CSc1ccc(NC(=O)Nc2ccc3c(c2)C(=O)N(CCc2c[nH]cn2)C(c2ccc(Cl)cn2)C3)cc1` (stereo not shown) [Compound 32, 1-{3-(5-chloropyridin-2-yl)-2-[2-(1H-imidazol-4-yl)ethyl]-1-oxo-1,2,3,4-tetrahydroisoquinolin-7-yl}-3-[4-(methylsulfanyl)phenyl]urea], the “FPR2 (efficacy)” value is on record as “nM (0.91)”.

On to `CS(=O)(=O)c1ccc(NC(=O)Nc2ccc3c(c2)C(=O)N(CCc2c[nH]cn2)C(c2ccc(Cl)cn2)C3)cc1` (stereo not shown) [Compound 33, 1-{3-(5-chloropyridin-2-yl)-2-[2-(1H-imidazol-4-yl)ethyl]-1-oxo-1,2,3,4-tetrahydroisoquinolin-7-yl}-3-[4-(methylsulfonyl)phenyl]urea], for which the “FPR2 (efficacy)” value is listed as “nM (0.99)”.

On to `CC1(C)C2CCC1C(C(=O)Nc1ccc(Br)cc1)C2C(N)=O` (stereo not shown) [Compound 34, N-(4-bromophenyl)-7,7-dimethylbicyclo[2.2.1]heptane-2,3-dicarboxamide], for which the “FPR2 (efficacy)” value is given as “nM (0.83)”.

For the compound `CC1(C)C2CCC1C(C(=O)Nc1ccc(I)cc1)C2C(N)=O` (stereo not shown) [Compound 35, N-(4-iodophenyl)-7,7-dimethylbicyclo[2.2.1]heptane-2,3-dicarboxamide], the “FPR2 (efficacy)” value was “nM (0.81)”.

Regarding `CSc1ccc(NC(=O)Nc2ccc3c(c2)C(=O)N(CCCN)[C@@H](c2ccc(C#N)cc2)C3)cc1` [Compound 36, (+)1-[(3R)-2-(3-aminopropyl)-3-(4-cyanophenyl)-1-oxo-1,2,3,4-tetrahydroisoquinolin-7-yl]-3-[4-(methylsulfanyl)phenyl]urea], the EC50 was determined as 3.3 nM and the “FPR2 (efficacy)” value is reported as “nM (0.97)”.

In the case of `CSc1ccc(NC(=O)C2C(C(N)=O)C3CCC2C3(C)C)cc1` (stereo not shown) [Compound 37, 7,7-dimethyl-N-[4-(methylsulfanyl)phenyl]bicyclo[2.2.1]heptane-2,3-dicarboxamide], the EC50 was 17 nM and the “FPR2 (efficacy)” value is recorded as “nM (0.85)”.

As for `NC(=O)C1C(C(=O)Nc2ccc(I)cc2)C2CCC1C21CC1` (stereo not shown) [Compound 38, N-(4-iodophenyl) spiro[bicyclo[2.2.1]heptane-7,1′-cyclopropane]-2,3-dicarboxamide], the EC50 turned out to be 1.9 nM and the “FPR2 (efficacy)” value was “nM (0.95)”.

Turning to `NC(=O)C1C(C(=O)Nc2ccc(I)cc2)C2C=CC1C21CC1` (stereo not shown) [Compound 39, N-(4-iodophenyl) spiro[bicyclo[2.2.1]heptane-7,1′-cyclopropane]-5-ene-2,3-dicarboxamide], the EC50 worked out at 1.6 nM and the “FPR2 (efficacy)” value was “nM (0.90)”.

Turning to `C[S+]([O-])c1ccc(NC(=O)Nc2ccc3c(c2)C(=O)N(CCCNC(=O)OC(C)(C)C)[C@@H](c2ccc(C#N)cc2)C3)cc1` (stereo partly drawn) [Compound 40, (+) tert-butyl {3-[(3R)-3-(4-cyanophenyl)-7-({[4-(methylsulfinyl)phenyl]carbamoyl}amino)-1-oxo-3,4-dihydroisoquinolin-2(1H)-yl]propyl}carbamate], the EC50 is 103 nM and the “FPR2 (efficacy)” value is on record as “nM (0.91)”.

For the compound `C[S+]([O-])c1ccc(NC(=O)Nc2ccc3c(c2)C(=O)N(CCCN)[C@@H](c2ccc(C#N)cc2)C3)cc1` (stereo partly drawn) [Compound 41, (+) 1-[(3R)-2-(3-aminopropyl)-3-(4-cyanophenyl)-1-oxo-1,2,3,4-tetrahydroisoquinolin-7-yl]-3-[4-(methylsulfinyl)phenyl]urea], the “FPR2 (efficacy)” value is “nM (0.94)”.

In the case of `CSc1ccc(NC(=O)Nc2ccc3c(c2)C(=O)N(CCCN)C(C)C3)cc1` (stereo not shown) [Compound 42, 1-[2-(3-aminopropyl)-3-methyl-1-oxo-1,2,3,4-tetrahydroisoquinolin-7-yl]-3-[4-(methylsulfanyl)phenyl]urea], the “FPR2 (efficacy)” value is reported as “nM (1.00)”.

`N#Cc1ccc(C2Cc3ccc(NC(=O)Nc4ccc(I)cc4)cc3C(=O)N2CCCN)cc1` (stereo not shown) [Compound 43, 1-[2-(3-aminopropyl)-3-(4-cyanophenyl)-1-oxo-1,2,3,4-tetrahydroisoquinolin-7-yl]-3-(4-iodophenyl)urea]: it took 13.7 nM to reach a half-maximal effect (EC50) and the “FPR2 (efficacy)” value is “nM (0.94)”.

With `O=C(Nc1ccc(Br)cc1)[C@@H]1C2CCC([C@@H]1C(=O)O)C21CC1` (stereo partly drawn) [Compound 44, (+) (2S,3R)-3-[(4-bromophenyl)carbamoyl]spiro[bicyclo[2.2.1]heptane-7,1′-cyclopropane]-2-carboxylic acid], the “FPR2 (efficacy)” value is on record as “nM (0.98)”.

`CNC(=O)C1C(C(=O)Nc2ccc(Br)cc2)C2CCC1C21CC1` (stereo not shown) [Compound 46, N-(4-bromophenyl)-N′-methylspiro[bicyclo[2.2.1]heptane-7,1′-cyclopropane]-2,3-dicarboxamide]: the response was half-maximal at 8.5 nM (EC50) and the “FPR2 (efficacy)” value is “nM (1.0)”.

In the case of `CCNC(=O)C1C(C(=O)Nc2ccc(Br)cc2)C2CCC1C21CC1` (stereo not shown) [Compound 47, N-(4-bromophenyl)-N′-ethylspiro[bicyclo[2.2.1]heptane-7,1′-cyclopropane]-2,3-dicarboxamide], the EC50 came out at 9.3 nM and the “FPR2 (efficacy)” value was “nM (1.0)”.

Take `CC(C)NC(=O)C1C(C(=O)Nc2ccc(Br)cc2)C2CCC1C21CC1` (stereo not shown) [Compound 48, N-(4-bromophenyl)-N′-(propan-2-yl)spiro[bicyclo[2.2.1]heptane-7,1′-cyclopropane]-2,3-dicarboxamide]: the concentration for a half-maximal effect (EC50) was determined as 6.7 nM and the “FPR2 (efficacy)” value was “nM (1.0)”.

Take `CCC1(CC)NC(=O)N(NC(=O)Nc2ccc(Br)cc2)C1=O` [Compound 49, 1-(4-bromophenyl)-3-(4,4-diethyl-2,5-dioxoimidazolidin-1-yl)urea]: the EC50 came out at 11.5 nM and the “FPR2 (efficacy)” value is recorded as “nM (0.98)”.

As to `CCC1(CC)NC(=O)N(NC(=O)Nc2ccc(Br)cc2F)C1=O` [Compound 50, 1-(4-bromo-2-fluorophenyl)-3-(4,4-diethyl-2,5-dioxoimidazolidin-1-yl)urea], the EC50 is 15.7 nM and the “FPR2 (efficacy)” value is on record as “nM (1.0)”.

Consider `O=C(Nc1ccc(I)cc1)N[C@@H](Cc1ccccc1)C(=O)O` [Compound 51, (2S)-2-{[(4-iodophenyl)carbamoyl]amino}-3-phenylpropanoic acid], for which the “FPR2 (efficacy)” value is “nM (1.0)”.

Consider `O=C(Nc1ccc(Br)cc1)NN1C(=O)NC2(CCCCC2)C1=O` [Compound 52, 1-(4-bromophenyl)-3-(2,4-dioxo-1,3-diazaspiro[4.5]dec-3-yl)urea], for which a half-maximal response (EC50) required 15.1 nM and the “FPR2 (efficacy)” value was “nM (1.0)”.

With `CC1(CCc2ccccc2)NC(=O)N(NC(=O)Nc2ccc(Br)cc2)C1=O` (stereo not shown) [Compound 54, 1-(4-bromophenyl)-3-[4-methyl-2,5-dioxo-4-(2-phenylethyl)imidazolidin-1-yl]urea], the “FPR2 (efficacy)” value is given as “nM (0.87)”.
